How the values were obtained:
Assay in all cases: relative viability (nuclei count vs DMSO), 5 days (fraction); higher = more cells survive
[1] = compound: N#CC[C@H](C1CCCC1)n1cc(-c2ncnc3[nH]ccc23)cn1 [Ruxolitinib] + CC(=O)c1c(C)c2cnc(Nc3ccc(N4CCNCC4)cn3)nc2n(C2CCCC2)c1=O [Palbociclib] (partner 0.5 µM)
Summary of the method: (§1)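 Lung cancer cell lines in 1536-well plates were dosed by pin tool the day after seeding, either with one drug alone or with a fixed anchor-drug dose plus five library-drug doses (not always all listed) in √10 steps. After 5 days, cells were fixed and their nuclei stained in one step (final 0.05% Triton X-100, 1% formaldehyde, 1 ug/ml Hoechst), then counted on 4× images. Relative viability is the nuclei count in treated wells divided by that in vehicle wells. Values are medians of duplicate plates.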

Ruxolitinib + Crizotinib = compound: N#CC[C@H](C1CCCC1)n1cc(-c2ncnc3[nH]ccc23)cn1 [Ruxolitinib] + C[C@@H](Oc1cc(-c2cnn(C3CCNCC3)c2)cnc1N)c1c(Cl)ccc(F)c1Cl [Crizotinib] (partner 1 µM)
Summary of the method: as §1

VE-821 + Lapatinib = compound: CS(=O)(=O)c1ccc(-c2cnc(N)c(C(=O)Nc3ccccc3)n2)cc1 [VE-821] + CS(=O)(=O)CCNCc1ccc(-c2ccc3ncnc(Nc4ccc(OCc5cccc(F)c5)c(Cl)c4)c3c2)o1 [Lapatinib] (partner 2 µM)
Summary of the method: as §1

Ruxolitinib + Trametinib = compound: N#CC[C@H](C1CCCC1)n1cc(-c2ncnc3[nH]ccc23)cn1 [Ruxolitinib] + CC(=O)Nc1cccc(-n2c(=O)n(C3CC3)c(=O)c3c(Nc4ccc(I)cc4F)n(C)c(=O)c(C)c32)c1 [Trametinib] (partner 0.02 µM)
Summary of the method: as §1

Row | Cell Line | relative viability ([1]; first compound 0.08 µM) | relative viability ([1]; first compound 0.253 µM) | relative viability ([1]; first compound 0.8 µM) | relative viability ([1]; first compound 2.53 µM) | relative viability ([1]; first compound 8 µM) | relative viability (Ruxolitinib + Crizotinib; first compound 0.08 µM) | relative viability (Ruxolitinib + Crizotinib; first compound 0.253 µM) | relative viability (Ruxolitinib + Crizotinib; first compound 0.8 µM) | relative viability (Ruxolitinib + Crizotinib; first compound 2.53 µM) | relative viability (Ruxolitinib + Crizotinib; first compound 8 µM) | relative viability (VE-821 + Lapatinib; first compound 0.08 µM) | relative viability (VE-821 + Lapatinib; first compound 0.253 µM) | relative viability (VE-821 + Lapatinib; first compound 0.8 µM) | relative viability (VE-821 + Lapatinib; first compound 2.53 µM) | relative viability (VE-821 + Lapatinib; first compound 8 µM) | relative viability (Ruxolitinib + Trametinib; first compound 0.08 µM) | relative viability (Ruxolitinib + Trametinib; first compound 0.253 µM) | relative viability (Ruxolitinib + Trametinib; first compound 0.8 µM) | relative viability (Ruxolitinib + Trametinib; first compound 2.53 µM) | relative viability (Ruxolitinib + Trametinib; first compound 8 µM)
1 | LOU-NH91 | 0.61 | 0.526 | 0.52 | 0.532 | 0.53 | 0.626 | 0.723 | 0.788 | 0.707 | 0.704 | 0.758 | 0.821 | 0.764 | 0.697 | 0.655 | 0.731 | 0.702 | 0.77 | 0.725 | 0.743
2 | NCI-H727 | 0.539 | 0.676 | 0.586 | 0.611 | 0.713 | 0.93 | 0.799 | 1.1 | 0.832 | 0.962 | 1.02 | 0.755 | 0.804 | 0.714 | 0.436 | 0.406 | 0.407 | 0.413 | 0.416 | 0.453
3 | NCI-H2023 | 0.42 | 0.4 | 0.361 | 0.387 | 0.397 | 0.533 | 0.574 | 0.746 | 0.704 | 0.719 | 0.918 | 0.878 | 0.713 | 0.477 | 0.202 | 0.57 | 0.524 | 0.654 | 0.4 | 0.565
4 | NCI-H1563 |  |  |  |  |  | 0.865 | 0.84 | 0.931 | 0.704 | 0.838 | 0.92 | 0.981 | 0.812 | 0.912 | 0.792 |  |  |  |  | 
5 | LCLC-103H | 0.495 | 0.467 | 0.468 | 0.426 | 0.394 | 1.04 | 1.15 | 1.2 | 1.09 | 0.988 |  |  |  |  |  | 0.728 | 0.707 | 0.731 | 0.595 | 0.639
6 | HARA | 0.301 | 0.273 | 0.286 | 0.228 | 0.253 | 1.02 | 1.02 | 1.08 | 1.09 | 0.687 | 0.825 | 0.559 | 0.826 | 0.757 | 0.47 | 0.639 | 0.622 | 1.07 | 0.269 | 0.775
7 | RERF-LC-KJ | 1.03 | 1.13 | 1.25 | 1.13 | 0.934 | 0.863 | 0.868 | 0.864 | 0.827 | 0.687 | 0.92 | 0.756 | 0.798 | 0.772 | 0.715 | 0.797 | 0.978 | 0.939 | 0.834 | 0.906
8 | NCI-H2009 | 0.289 | 0.216 | 0.241 | 0.154 | 0.139 | 1.1 | 0.996 | 1.12 | 0.769 | 0.832 | 0.89 | 0.959 | 0.893 | 0.997 | 0.977 | 0.304 | 0.249 | 0.329 | 0.168 | 0.196
9 | NCI-H2126 | 0.382 | 0.333 | 0.371 | 0.363 | 0.363 | 0.996 | 1.11 | 1.02 | 1.03 | 0.984 | 0.741 | 0.713 | 0.747 | 0.677 | 0.6 | 0.559 | 0.543 | 0.607 | 0.58 | 0.664

From the supplement of paper PMC10307832
